{"source": "patent US20220354826A1", "about": "“PLEUROMUTILIN (E)-4-(1-IMIDAZOYLMETHYL )CINNAMIC ACID ESTER WITH ANTI-DRUG RESISTANT BACTERIA ACTIVITY AND A METHOD OF PREPARING THE SAME” (SHAANXI UNIVERSITY OF SCIENCE AND TECHNOLOGY, priority 2021, published 2022)", "type_in_all_cases": "cell-based", "key": {"[1]": {"system": "multi-resistant Staphylococcus aureus 171 (MRSA-171)", "experiment": "Paper diffusion method drug sensitivity test, MRSA-171", "details": "for Zone of inhibition: strain MRSA-171, drug sensitive paper 30 μg/tablet, 6.35 mm, LB plate, 37° C., 24 h, ≥17 mm sensitive, 15-16 mm intermediary, ≤14 mm resistance; for inhibitory effect (in words): multi-drug resistant Staphylococcus aureus 171, paper diffusion", "description": "(§1) The antimicrobial efficacy was determined by a paper diffusion method drug sensitivity test.\n(§2) Experimental strains: multi-resistant Staphylococcus aureus 171, multi-resistant Staphylococcus aureus 222, multi-resistant Staphylococcus aureus 575. The experimental strains were identified by Huashan Hospital Affiliated to Fudan University (Institute of Antibiotic of Fudan University).\n(§3) Drug sensitive paper: The drug sensitive paper is a special drug sensitive paper with a diameter of 6.35 mm and a water absorption of 0.02 mL. The control drug was vancomycin (30 μg/tablet); the test drugs were pleuromutilin (E)-4-(1-imidazoyl-methyl)cinnamic acid ester (30 μg/tablet).\n(§4) The experimental strains were inoculated in non-selective medium and placed in air at 37° C. for 24 h. Pick a single colony that grows well and inoculate it into broth medium, incubate at 35° C.±2° C. for 6 hours, and use LA broth medium to calibrate the concentration of the bacterial solution to 0.5 Mie turbidimetric tube ([…]). A bacterial suspension is obtained.\n(§5) LB dry powder was weighed, sterilized at 103.4 Kpa, 121.3° C. high-pressure steam for 15 min, and then placed it in a 40° C.-50° C. water bath. A sterile empty plate (inner diameter 9 cm) was placed on the surface of the ultra-clean table water table, and […] to the plate. The thickness of each plate was 3 mm to 4 mm. After the plate was cooled at room temperature, it was stored in the refrigerator at 2° C.-8° C. A sterile cotton swab was used to dip the bacterial solution and to evenly coat the surface of the LB plate 3 times. After inoculation of the bacterial suspension, the LB plate was dried at room temperature for 3 min to 5 min. Sterile forceps were used to closely attach the antibacterial drug paper to the dish. The dish was put upside down and placed in a 37° C. incubator for 24 h. The results were observed by measuring the diameter. Taking 0.5% DMSO solution as a negative control, the antibacterial activity is expressed by the diameter of the inhibition zone. The inhibition zone ≥17 mm, sensitive; the inhibition zone of 15 mm-16 mm, intermediary; the inhibition zone ≤14 mm, drug resistance."}, "[2]": {"system": "multi-resistant Staphylococcus aureus 222 (MRSA-222)", "experiment": "Paper diffusion method drug sensitivity test, MRSA-222", "details": "for Zone of inhibition: strain MRSA-222, drug sensitive paper 30 μg/tablet, 6.35 mm, LB plate, 37° C., 24 h, ≥17 mm sensitive, 15-16 mm intermediary, ≤14 mm resistance; for inhibitory effect (in words): multi-drug resistant Staphylococcus aureus 222, paper diffusion", "description": "as §1, §2, §3, §4, §5"}, "[3]": {"system": "multi-resistant Staphylococcus aureus 575 (MRSA-575)", "experiment": "Paper diffusion method drug sensitivity test, MRSA-575", "details": "for Zone of inhibition: strain MRSA-575, drug sensitive paper 30 μg/tablet, 6.35 mm, LB plate, 37° C., 24 h, ≥17 mm sensitive, 15-16 mm intermediary, ≤14 mm resistance; for inhibitory effect (in words): multi-drug resistant Staphylococcus aureus 575, paper diffusion", "description": "as §1, §2, §3, §4, §5"}}}
{"smiles": "CN[C@H](CC(C)C)C(=O)N[C@H]1C(=O)N[C@@H](CC(N)=O)C(=O)N[C@H]2C(=O)N[C@H]3C(=O)N[C@H](C(=O)N[C@H](C(=O)O)c4cc(O)cc(O)c4-c4cc3ccc4O)[C@H](O)c3ccc(c(Cl)c3)Oc3cc2cc(c3O[C@@H]2O[C@H](CO)[C@@H](O)[C@H](O)[C@H]2O[C@H]2C[C@](C)(N)[C@H](O)[C@H](C)O2)Oc2ccc(cc2Cl)[C@H]1O", "note": "[Vancomycin, vancomycin]", "values": [{"measurement": "Zone of inhibition", "setting": "[1]", "result": 17, "unit": "mm"}, {"measurement": "Zone of inhibition", "setting": "[2]", "result": 18, "unit": "mm"}, {"measurement": "Zone of inhibition", "setting": "[3]", "result": 21, "unit": "mm"}]}
{"smiles": "C=C[C@]1(C)C[C@@H](OC(=O)CO)[C@]2(C)[C@H](C)CC[C@]3(CCC(=O)[C@H]32)[C@@H](C)[C@@H]1O", "note": "[Pleuromutilin]", "values": [{"measurement": "inhibitory effect (in words)", "setting": "[1]", "result": "no inhibitory effect"}, {"measurement": "Zone of inhibition", "setting": "[1]", "result": 0, "unit": "mm"}, {"measurement": "inhibitory effect (in words)", "setting": "[2]", "result": "no inhibitory effect"}, {"measurement": "Zone of inhibition", "setting": "[2]", "result": 0, "unit": "mm"}, {"measurement": "inhibitory effect (in words)", "setting": "[3]", "result": "no inhibitory effect"}, {"measurement": "Zone of inhibition", "setting": "[3]", "result": 0, "unit": "mm"}]}
{"smiles": "C=C[C@]1(C)C[C@@H](OC(=O)COC(=O)/C=C/c2ccc(Cn3ccnc3)cc2)[C@]2(C)[C@H](C)CC[C@]3(CCC(=O)[C@H]32)[C@@H](C)[C@@H]1O", "values": [{"measurement": "inhibitory effect (in words)", "setting": "[1]", "result": "strong inhibitory effects"}, {"measurement": "Zone of inhibition", "setting": "[1]", "result": 16, "unit": "mm"}, {"measurement": "inhibitory effect (in words)", "setting": "[2]", "result": "strong inhibitory effects"}, {"measurement": "Zone of inhibition", "setting": "[2]", "result": 17, "unit": "mm"}, {"measurement": "inhibitory effect (in words)", "setting": "[3]", "result": "strong inhibitory effects"}, {"measurement": "Zone of inhibition", "setting": "[3]", "result": 15, "unit": "mm"}]}
{"smiles": "O=C(O)/C=C/c1ccc(Cn2ccnc2)cc1", "note": "[(E)-4-(1-imidazoylmethyl)cinnamic acid]", "values": [{"measurement": "inhibitory effect (in words)", "setting": "[1]", "result": "no inhibitory effect"}, {"measurement": "Zone of inhibition", "setting": "[1]", "result": 0, "unit": "mm"}, {"measurement": "inhibitory effect (in words)", "setting": "[2]", "result": "no inhibitory effect"}, {"measurement": "Zone of inhibition", "setting": "[2]", "result": 0, "unit": "mm"}, {"measurement": "inhibitory effect (in words)", "setting": "[3]", "result": "no inhibitory effect"}, {"measurement": "Zone of inhibition", "setting": "[3]", "result": 0, "unit": "mm"}]}
